Like-named read-outs stand apart in the source and are kept apart here.
Experiments:
[1] = design: method as in PMID 20804307; conditions: Iranian patients with erosive reflux esophagitis, cited from earlier work
CYP2C19 [2] = assay: Omeprazole hydroxylation index (omeprazole/hydroxyomeprazole in plasma) as measure of CYP2C19 activity; type: in vivo, human; design: key to Median hydroxylation index / Median hydroxylation index (HI) / Mean HI ± SD: ratio: plasma omeprazole / 5-hydroxyomeprazole concentration at 3 h; conditions: for Mean HI ± SD: 3 h after single oral 20 mg omeprazole; for Median hydroxylation index: all genotypes
Source text: (§1) The study protocol was approved by ethics committee of Tehran University of Medical Sciences (ethical no. 11208). Generally one hundred and eighty (60 women and 120 men) unrelated healthy Iranian volunteers with the mean age of between 20–55 years and average body weight of 45–89 kg took part in this study. All participants signed written informed consent of this project. The study was completed by contribution of faculties of pharmacy of Tehran, Yazd, Kermanshah and Kerman University of Medical Sciences. The participants were students or stuffs of pharmacy schools, with no history of any illness or medicine consumption. No smoking and consumption of medicine that would affect CYP2C19 activity was permitted for one week before and during the study.
(§2) After an overnight fast for at least 8 hours, volunteers took 20 mg omeprazole capsule (Abidi pharmaceuticals) with 250 milliliter tap water. Ten ml venous blood sample was collected from each subject 3 hours after administration of omeprazole and transferred into tubes containing 10 μl of 10% EDTA. Five ml of blood samples were centrifuged for 5 min at 4000 rpm and the plasma was separated and transferred to Eppendorf tube and stored at −80°C up to the day of analysis. The other 5 ml blood samples were stored directly in −80°C for genotyping analysis.
(§3) Omeprazole powder was purchased from TMAD (Iran). 5-hydroxyomeprazole was a kind donation by AstraZeneca (Sweden). The concentration of omeprazole and 5-hydroxyomeprazole was analyzed by HPLC method as described by Rezk et al. with a few modifications. Briefly 500 μl plasma was extracted by liquid-liquid extraction using 1500 μl ethyl acetate. After orbital mixing for 10 min and centrifuging at 4000 × g for 10 min, the upper organic layer was separated and transferred to glass tube and then evaporated to dryness under gentle stream of air. Finally the residue was dissolved in 250 μl mobile phase and 100 μl of this sample was injected to HPLC system. The mobile phase was a combination of dibasic sodium phosphate buffer (0.025 mol/lit, pH 6): acetonitrile: methanol (73: 18: 8 V/V/V). The HPLC apparatus consisted of a low pressure HPLC pump, UV detector (λ = 302 nm) all from Knauer (Berlin, Germany). The chromatographic separation was performed by using Chromolit™ Performance RP-18e 100 mm × 4.6 mm, 5 μm particle size. Flow rate was adjusted to 1 ml/min.
(§4) The allele frequencies differences between population were estimated using two-tailed Fisher’s exact test. The 95% confidence intervals (CI) were calculated using Confidence Interval Analysis software. The relation of sex and genotype was assessed by two tailed Fisher’s exact test. The observed and expected frequencies were calculated by using Hardy-Weinberg equation. The two-tailed Fisher’s exact test was used to evaluate deviation of genotype frequencies in the studied population from Hardy-Weinberg equilibrium. The enzyme activity was compared by using omeprazole hydroxylation index. The hydroxylation index (HI) of omeprazole 3 hours after administration of omeprazole was calculated by dividing omeprazole to 5-hydroxyomeprazol plasma concentration. The mean HI in different genotypes were compared by Mann–Whitney two tailed test. The impact of sex on HI of omeprazole was also evaluated using Mann–Whitney two tailed test. The inter-individual variability in metabolism of omeprazole was represented by probit plot. For drawing probit plot, the log of HI was calculated, the antimode value was determined using Microsoft office excel 2010. The normality of HI distribution was analyzed by frequency distribution histogram and also by Kolmogorov- Smirnov test. All statistical analyses were performed by Sigma Plot version 12.0 and Graph Pad Prism version 5 softwares and P < 0.05 was considered as statistically significant difference.

CYP2C19 [3] = molecular target: T1, CYP2C19 (Homo sapiens, UniProt P33261); assay: as above; type: in vivo; design: key to Median hydroxylation index / Median hydroxylation index (HI) / Mean HI ± SD: ratio: plasma omeprazole / 5-hydroxyomeprazole concentration at 3 h
T1 construct: volunteers took 20 mg omeprazole capsule (Abidi pharmaceuticals) with 250 milliliter tap water; from tissue; host or cells: in vivo, endogenous enzyme of healthy human volunteers; metabolites measured in plasma
Source text: as §1, §2, §3, §4

[4] = Plasma concentration of omeprazole and hydroxyomeprazole by HPLC 3 hours after a single oral 20 mg omeprazole dose; type: in vivo, human; conditions: for concentration at 3 h: human, plasma, po, 20 mg, 3 h after single oral 20 mg omeprazole, read-out: Mean OMP concentration ± SD
Source text: as §1, §2, §3

CYP2C19 [5] = conditions: cited from earlier work

T1 sequence (P33261 whole entry): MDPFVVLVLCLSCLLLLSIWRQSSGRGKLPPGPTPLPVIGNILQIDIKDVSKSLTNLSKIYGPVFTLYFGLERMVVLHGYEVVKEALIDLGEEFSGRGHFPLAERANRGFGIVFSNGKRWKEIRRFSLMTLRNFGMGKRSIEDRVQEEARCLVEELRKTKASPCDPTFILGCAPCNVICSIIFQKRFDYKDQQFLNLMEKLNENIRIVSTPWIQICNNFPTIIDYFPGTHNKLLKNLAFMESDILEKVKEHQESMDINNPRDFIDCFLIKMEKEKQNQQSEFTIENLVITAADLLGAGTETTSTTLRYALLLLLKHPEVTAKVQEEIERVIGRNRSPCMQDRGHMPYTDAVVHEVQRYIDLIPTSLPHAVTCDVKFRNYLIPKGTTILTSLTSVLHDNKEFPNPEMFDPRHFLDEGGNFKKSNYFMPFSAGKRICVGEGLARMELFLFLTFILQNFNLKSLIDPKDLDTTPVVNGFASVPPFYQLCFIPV

COc1ccc2[nH]c([S+]([O-])Cc3ncc(C)c(OC)c3C)nc2c1 (stereo not drawn) [omeprazole]
Successful treatment response ([1]; EM genotype): 43% | Successful treatment response ([1]; HetEM genotype): 95% | Omeprazole HI, women compared with men (CYP2C19 [2]; 60 women vs 120 men, P > 0.05): not statistically different | Median HI, fold higher in CYP2C19*1 homozygous than in CYP2C19*17 homozygous subjects (CYP2C19 [2]; *1*1 vs *17*17, P < 0.001): 2.17 fold | Median HI, fold higher in CYP2C19*1*17 than in CYP2C19*17*17 subjects (CYP2C19 [2]; *1*17 vs *17*17, P < 0.001): 1.97 fold | Mean HI ± SD (CYP2C19 [2]; genotype 1*1, Men (53)): 0.89 ± 0.30 | Mean HI ± SD (CYP2C19 [2]; genotype 1*1, Women (22)): 0.78 ± 0.27 | Mean HI ± SD (CYP2C19 [2]; genotype 1*2, Men (20)): 2.29 ± 1.19 | Mean HI ± SD (CYP2C19 [2]; genotype 1*2, Women (13)): 2.24 ± 0.79 | Mean HI ± SD (CYP2C19 [2]; genotype 1*17, Men (37)): 0.77 ± 0.32 | Mean HI ± SD (CYP2C19 [2]; genotype 1*17, Women (15)): 0.72 ± 0.18 | Mean HI ± SD (CYP2C19 [2]; genotype 2*2, Men (1)): 14.25 | Mean HI ± SD (CYP2C19 [2]; genotype 2*2, Women (3)): 13.37 ± 3.80 | Mean HI ± SD (CYP2C19 [2]; genotype 2*17, Men (2)): 2.05 ± 0.67 | Mean HI ± SD (CYP2C19 [2]; genotype 2*17, Women (4)): 1.97 ± 0.62 | Mean HI ± SD (CYP2C19 [2]; genotype 17*17, Men (5)): 0.36 ± 0.04 | Mean HI ± SD (CYP2C19 [2]; genotype 17*17, Women (5)): 0.34 ± 0.08 | Median hydroxylation index (CYP2C19 [2]; men (120)): 0.86 | Median hydroxylation index (CYP2C19 [2]; women (60)): 0.84 | Median hydroxylation index (HI) (CYP2C19 [3]; CYP2C19 *1*1, 3 h after 20 mg omeprazole orally): 0.78 | Median hydroxylation index (HI) (CYP2C19 [3]; CYP2C19 *1*17, 3 h after 20 mg omeprazole orally): 0.71 | Omeprazole plasma concentration, women compared with men ([4]; 60 women vs 120 men, P > 0.05): not statistically different | Mean omeprazole plasma concentration, fold higher in CYP2C19*2*2 than CYP2C19*1*1 ([4]; *2*2 vs *1*1, P < 0.001): 11 fold | Mean omeprazole plasma concentration, fold higher in CYP2C19*2*2 than CYP2C19*17*17 ([4]; *2*2 vs *17*17, P < 0.001): 19.0 fold | concentration at 3 h ([4]; both sexes, genotype 1*1, Total (75)): 125 ± 27.2 ng/mL | concentration at 3 h ([4]; both sexes, genotype 1*2, Total (33)): 319 ± 150 ng/mL | concentration at 3 h ([4]; both sexes, genotype 1*17, Total (52)): 118 ± 10.2 ng/mL | concentration at 3 h ([4]; both sexes, genotype 2*2, Total (4)): 1390 ± 123 ng/mL | concentration at 3 h ([4]; both sexes, genotype 2*17, Total (6)): 289 ± 97.5 ng/mL | concentration at 3 h ([4]; both sexes, genotype 17*17, Total (10)): 71 ± 10.3 ng/mL | concentration at 3 h ([4]; female, genotype 1*1, Women (22)): 128 ± 39.9 ng/mL | concentration at 3 h ([4]; female, genotype 1*2, Women (13)): 365 ± 265 ng/mL | concentration at 3 h ([4]; female, genotype 1*17, Women (15)): 120 ± 20.1 ng/mL | concentration at 3 h ([4]; female, genotype 2*2, Women (3)): 1360 ± 133 ng/mL | concentration at 3 h ([4]; female, genotype 2*17, Women (4)): 324 ± 39.9 ng/mL | concentration at 3 h ([4]; female, genotype 17*17, Women (5)): 68.3 ± 5.73 ng/mL | concentration at 3 h ([4]; male, genotype 1*1, Men (53)): 123 ± 20.8 ng/mL | concentration at 3 h ([4]; male, genotype 1*2, Men (20)): 290 ± 168 ng/mL | concentration at 3 h ([4]; male, genotype 1*17, Men (37)): 117 ± 16.1 ng/mL | concentration at 3 h ([4]; male, genotype 2*2, Men (1)): 1480 ng/mL | concentration at 3 h ([4]; male, genotype 2*17, Men (2)): 271 ± 119 ng/mL | concentration at 3 h ([4]; male, genotype 17*17, Men (5)): 73.7 ± 13.7 ng/mL | Antimode for HI of omeprazole (CYP2C19 [5]; Colombians): 0.63 | Antimode for HI of omeprazole (CYP2C19 [5]; Indian): 14.4 | Antimode for HI of omeprazole (CYP2C19 [5]; Koreans): 7.0 | Mean HI, fold higher in CYP2C19*1*1 than CYP2C19*1*17 (CYP2C19 [5]; Ramsjö et al.): 1.1 fold | Mean HI, fold higher in CYP2C19*1*1 than CYP2C19*17*17 (CYP2C19 [5]; Ramsjö et al.): 3.2 fold | Median HI, fold higher in homozygous CYP2C19*1 than CYP2C19*1*17 carriers (CYP2C19 [5]; Sim et al.): 1.2 fold | Median HI, fold higher in homozygous CYP2C19*1 than homozygous CYP2C19*17 carriers (CYP2C19 [5]; Sim et al.): 2 fold | Antimode for HI of omeprazole (CYP2C19 [5]; Thai population): 7.0 | Antimode for HI of omeprazole (CYP2C19 [5]; West Mexicans): 3.98

Reference: paper PMC4266903, “Hydroxylation index of omeprazole in relation to CYP2C19 polymorphism and sex in a healthy Iranian population” (DARU Journal of Pharmaceutical Sciences, 2014)
